The experiment concerns nude mice, HT29 intrarenal xenograft, tumor weight T/C. The experiment can be described thus: NCI In Vivo Anticancer Drug Screen. Data for tumor model HT29;CX-1 Human Adenocarcinoma (MER+) (intrarenal inoculation) in NU/NU Swiss (nude) mice. To be noted: endpoint: mean tumor weight change, higher = larger tumour. In a few lines:
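Readout: treated/vehicle-control ratio of the measured endpoint (tumor size or survival) in transplanted-tumor mice.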

[1] abbreviates: dose: 300.0 mg/kg/injection, schedule: Q04DX004 (sc), vehicle: saline with Tween-80.
[2] abbreviates: dose: 600.0 mg/kg/injection, schedule: Q04DX004 (sc), vehicle: saline with Tween-80.
Where [3] appears, read: dose: 1200.0 mg/kg/injection, schedule: Q04DX004 (sc), vehicle: saline with Tween-80.
Where [4] appears, read: dose: 50.0 mg/kg/injection, schedule: Q01DX010 (sc), vehicle: saline with Tween-80.
[5] abbreviates: dose: 0.5 mg/kg/injection, schedule: Q01DX010 (sc), vehicle: saline.
The mark [6] stands for this setting: dose: 25.0 mg/kg/injection, schedule: Q01DX010 (sc), vehicle: Klucel (hydroxypropylcellulose) (HPC).
The mark [7] stands for this setting: dose: 50.0 mg/kg/injection, schedule: Q01DX010 (sc), vehicle: Klucel (hydroxypropylcellulose) (HPC).
Where [8] appears, read: dose: 100.0 mg/kg/injection, schedule: Q01DX010 (sc), vehicle: Klucel (hydroxypropylcellulose) (HPC).

Several values for one entry are separate records, joined by “and”; a condition that tells them apart may be missing. Equal entries are not always repeated. Results filed as inconclusive are left out.

With `COC(=O)NC1C(C)OC(OC2C/C=C(/C)C3C=CC4C(OC5CC(OC6CCC(OC7CC(O)C(OC8CCC(O)C(C)O8)C(C)O7)C(C)O6)C(OC(C)=O)C(C)O5)C(C)CC(C)C4C3(C)/C(O)=C3/C(=O)OC4(CC(C=O)=CC(O)C4/C=C\2C)C3=O)CC1(C)[N+](=O)[O-]` (configuration not stated), the T/C is, setting by setting: (dose: 12.5 mg/kg/injection, schedule: Q04DX004 (sc), vehicle: other) 92 % of control; (dose: 25.0 mg/kg/injection, schedule: Q04DX004 (sc), vehicle: other) 103 % of control; (dose: 50.0 mg/kg/injection, schedule: Q04DX004 (sc), vehicle: other) 51 % of control.
Regarding `CCOC(=O)C(C)(C)Oc1ccc(Cl)cc1`, the T/C is 72 % of control under setting [1], 70 % of control under setting [2] and 68 % of control under setting [3].
As for `O=c1cc(CCl)[nH]nc1CCl`, the T/C is 90 % of control (dose: 25.0 mg/kg/injection, schedule: Q01DX010 (sc), vehicle: saline with Tween-80); 156 % of control under setting [4]; 90 % of control (dose: 100.0 mg/kg/injection, schedule: Q01DX010 (sc), vehicle: saline with Tween-80); 27 % of control (dose: 200.0 mg/kg/injection, schedule: Q01DX010 (sc), vehicle: saline with Tween-80).
Regarding `NC1=NC(=O)N2CC12` (configuration not stated), the T/C (dose: 50.0 mg/kg/injection, schedule: Q04DX004 (sc), vehicle: saline) is 103 % of control; the T/C (dose: 100.0 mg/kg/injection, schedule: Q04DX004 (sc), vehicle: saline) is 85 % of control; the T/C (dose: 200.0 mg/kg/injection, schedule: Q04DX004 (sc), vehicle: saline) was 79 % of control.
For the molecule `c1ccc2sc(SSN3CC4CCC(CC4)C3)nc2c1`, the T/C under setting [4] is 120 % of control and the T/C (dose: 400.0 mg/kg/injection, schedule: Q01DX010 (sc), vehicle: saline with Tween-80) was 96 % of control.
For `CC1CN1C(=O)NCCCCCCNC(=O)N1CC1C` (configuration not stated), the T/C (dose: 10.0 mg/kg/injection, schedule: Q04DX004 (sc), vehicle: Klucel (hydroxypropylcellulose) (HPC)) was 36 % of control and the T/C (dose: 40.0 mg/kg/injection, schedule: Q04DX004 (sc), vehicle: Klucel (hydroxypropylcellulose) (HPC)) is 16 % of control.
Take `CC(=O)OCC1(C)NC(=O)c2ccccc2O1` (configuration not stated): the T/C (dose: 150.0 mg/kg/injection, schedule: Q04DX004 (sc), vehicle: saline with Tween-80) is 78 % of control; the T/C under setting [1] is 79 % of control; the T/C under setting [2] was 100 % of control; the T/C under setting [3] is 52 % of control.
`C(COCCOCC1CO1)OCCOCC1CO1` (configuration not stated): the T/C runs as follows: (dose: 150.0 mg/kg/injection, schedule: Q04DX004 (sc), vehicle: saline) 63 % of control; (dose: 300.0 mg/kg/injection, schedule: Q04DX004 (sc), vehicle: saline) 55 % of control; (dose: 600.0 mg/kg/injection, schedule: Q04DX004 (sc), vehicle: saline) 43 % of control.
Regarding `COc1ccc(/C=C/C(=O)c2cc(C(=O)O)c(OC)cc2OC)cc1OC`, the T/C was 82 % of control (dose: 225.0 mg/kg/injection, schedule: Q04DX004 (sc), vehicle: suspension in saline); 102 % of control (dose: 450.0 mg/kg/injection, schedule: Q04DX004 (sc), vehicle: suspension in saline); 88 % of control (dose: 900.0 mg/kg/injection, schedule: Q04DX004 (sc), vehicle: suspension in saline).
For `CCCCCCCC(=O)N/N=C(\CO)[C@]1(O)Cc2c(O)c3c(c(O)c2[C@@H](OC2CC(N)C(O)C(C)O2)C1)C(=O)c1c(OC)cccc1C3=O` (some centres not stated), the T/C runs as follows: (dose: 31.25 mg/kg/injection, schedule: Q04DX004 (sc), vehicle: water) 2 % of control; (dose: 32.5 mg/kg/injection, schedule: Q04DX004 (sc), vehicle: water) 102 % of control; (dose: 62.5 mg/kg/injection, schedule: Q04DX004 (sc), vehicle: water) 51 % of control; (dose: 65.0 mg/kg/injection, schedule: Q04DX004 (sc), vehicle: water) 34 % of control; (dose: 130.0 mg/kg/injection, schedule: Q04DX004 (sc), vehicle: water) 46 % of control; (dose: 250.0 mg/kg/injection, schedule: Q04DX004 (sc), vehicle: water) 10 % of control. In addition, the T/C (dose: 260.0 mg/kg/injection, schedule: Q04DX004 (sc), vehicle: water) is 19 % of control.
In the case of `COC(=O)C12OCC34C(CC5C(C)=CC(=O)C(O)C5(C)C3C(O)C1O)OC(=O)C(OC(=O)CC(C)C)C24` (configuration not stated), the T/C (dose: 1.5 mg/kg/injection, schedule: Q04DX004 (sc), vehicle: saline + alcohol) was 59 % of control and the T/C (dose: 3.0 mg/kg/injection, schedule: Q04DX004 (sc), vehicle: saline + alcohol) is 76 % of control.
In the case of `O=C(O)C1CC(c2ccccc2)=NN1c1ccccc1` (configuration not stated), the T/C is, setting by setting: (dose: 75.0 mg/kg/injection, schedule: Q04DX004 (sc), vehicle: water) 76 % of control; (dose: 150.0 mg/kg/injection, schedule: Q04DX004 (sc), vehicle: water) 79 % of control; (dose: 300.0 mg/kg/injection, schedule: Q04DX004 (sc), vehicle: water) 74 % of control.
Consider `CC[C@]1(O)C[C@H]2CN(CCc3c([nH]c4ccccc34)[C@@](C(=O)OC)(c3cc4c(cc3OC)N(C)[C@H]3[C@@](O)(C(=O)OC)[C@H](OC(C)=O)[C@]5(CC)C=CCN6CC[C@]43[C@@H]65)C2)C1`, for which the T/C was 76 % of control (dose: 0.25 mg/kg/injection, schedule: Q01DX010 (sc), vehicle: saline); 88 % of control under setting [5]; 60 % of control (dose: 1.0 mg/kg/injection, schedule: Q01DX010 (sc), vehicle: saline).
Turning to `N#CC(=C1SCS1)[N+](=O)[O-]`, the T/C runs as follows: (dose: 12.0 mg/kg/injection, schedule: Q04DX004 (sc), vehicle: saline) 22 % of control; (dose: 24.0 mg/kg/injection, schedule: Q04DX004 (sc), vehicle: saline) 154 % of control; (dose: 48.0 mg/kg/injection, schedule: Q04DX004 (sc), vehicle: saline) 32 % of control; (dose: 96.0 mg/kg/injection, schedule: Q04DX004 (sc), vehicle: saline) 45 % of control.
In the case of `Cn1c(=O)[nH]c2nncnc2c1=O`, the T/C runs as follows: (dose: 15.0 mg/kg/injection, schedule: Q04DX004 (sc), vehicle: water) 79 % of control and 101 % of control; (dose: 60.0 mg/kg/injection, schedule: Q04DX004 (sc), vehicle: water) 78 % of control and 86 % of control; (dose: 120.0 mg/kg/injection, schedule: Q04DX004 (sc), vehicle: water) 19 % of control.
Regarding `COC1=C(N)C(=O)c2nc(-c3nc(C(=O)O)c(C)c(-c4ccc(OC)c(OC)c4O)c3N)ccc2C1=O`, the T/C (dose: 0.13 mg/kg/injection, schedule: Q01DX010 (sc), vehicle: saline) was -33 % of control and the T/C under setting [5] was -10 % of control.
As to `CC(=O)OCc1cc(=O)n(C)c2c3c4c(cc12)c(C)cc(=O)n4CO3`, the T/C reads like this: under setting [6], 99 % of control; under setting [7], 105 % of control; under setting [8], 59 % of control; (dose: 200.0 mg/kg/injection, schedule: Q01DX010 (sc), vehicle: Klucel (hydroxypropylcellulose) (HPC)) 34 % of control.
Regarding `C[C@]12C=CC(=O)C=C1CC[C@@H]1[C@@H]2[C@@H](O)C[C@@]2(C)[C@H]1CC[C@]2(O)C(=O)CO`, the T/C by setting is: (dose: 12.5 mg/kg/injection, schedule: Q01DX010 (sc), vehicle: Klucel (hydroxypropylcellulose) (HPC)) 79 % of control; under setting [6], 112 % of control; under setting [7], 66 % of control; under setting [8], 83 % of control.
Take `CN(C)C1C(=O)C(C(=O)NP(=O)(NCCCO)N(CCCl)CCCl)=C(O)C2(O)C(=O)C3=C(O)c4c(O)cccc4C(C)(O)C3CC12` (configuration not stated): the T/C by setting is: (dose: 75.0 mg/kg/injection, schedule: Q04DX004 (sc), vehicle: saline with Tween-80) 89 % of control; under setting [1], 7 % of control and 32 % of control; under setting [2], -99 % of control.

Values taken from PubChem BioAssay AID206 (DTP/NCI, 2004).
